What was measured:
Trypanosoma cruzi [1] = assay: GSK_TCAKS: pIC50 Trypanosoma cruzi viability assay using beta-GAL activity. This assay was run at single shot at 5uM compound concentration per well. The biological reagents consisted of NIH-3T3 host cells and trypomastigotes parasitic cells; both cell types were set to a 3.3 * 10^5 cells/mL dilution in assay DMEM by means of a CASY cell counter device using a 60um capillary. 6 uL of the mixture were dispensed per well (about 1 * 10^3 host-cells and 1 * 10^3 parasites) with a Multidrop Combi dispenser. […] In all wells, the percentage of DMSO never exceeded 0.5%. Plates incubated for four days at 37C, 5% CO2. The substrate used for the assay fluorescence intensity (FLINT) readout was resorufin-beta-D-galactopiranoside (Sigma-Aldrich) at 5uM per well. It was diluted in PBS supplemented with the soft detergent Igepal (Fluka).; format: functional, organism-based, Mus musculus; settings: Tulahuen, NIH3T3
Trypanosoma cruzi [2] = assay: (§1) GSK_TCAKS: pIC50 Trypanosoma cruzi Imaging: Infected Cells. […] Cells were then washed once with PBS before infection. T. cruzi trypomastigotes, collected at days 5 to 8 after infection from LLC-MK2 parasite infected cultures, were allowed to swim out for 4h at 37C from a centrifuged pellet (2,500 rpm/10 min/room temperature). Trypomastigotes were then collected and counted in a CASY Cell Counter. Trypomastigotes, in supplemented DMEM, were added to H9c2 cultures in a multiplicity of infection of 1 and incubated for 18 h. Cells were washed once with PBS before incubation of the infected H9c2 monolayer with trypsin (Life-Technologies) to detach cells from the flask. Cells were counted in a CASY Cell Counter using a 150 um capillary and their density set at 5 * 10^4 cells per mL in supplemented assay DMEM. Infected H9c2 were dispensed into 384-well poly-lysine coated assay plates at 50uL per well using a Multidrop Combi dispenser. After seeding them, the plates were incubated at 37C, 5% CO2 for 72h. Cultures were then fixed and stained by addition of 50 uL of a solution containing 8% formaldehyde and 4 uM DRAQ5 DNA dye (BioStatus, UK) per well. […] Five images were collected per well for reliable statistical analysis. Automated image analysis was performed with a script developed on Acapella High Content Imaging and Analysis Software (PerkinElmer). Output: percentage of infected cells per well as a second infection marker.; format: functional, organism-based, Rattus norvegicus; settings: H9c2, 4 h
Trypanosoma cruzi [3] = assay: GSK_TCAKS: pIC50 Trypanosoma cruzi Imaging: Amastigotes/Cell. […] Cells were then washed once with PBS before infection. T. cruzi trypomastigotes, collected at days 5 to 8 after infection from LLC-MK2 parasite infected cultures, were allowed to swim out for 4h at 37C from a centrifuged pellet (2,500 rpm/10 min/room temperature). Trypomastigotes were then collected and counted in a CASY Cell Counter. Trypomastigotes, in supplemented DMEM, were added to H9c2 cultures in a multiplicity of infection of 1 and incubated for 18 h. Cells were washed once with PBS before incubation of the infected H9c2 monolayer with trypsin (Life-Technologies) to detach cells from the flask. Cells were counted in a CASY Cell Counter using a 150 um capillary and their density set at 5 * 10^4 cells per mL in supplemented assay DMEM. Infected H9c2 were dispensed into 384-well poly-lysine coated assay plates at 50uL per well using a Multidrop Combi dispenser. After seeding them, the plates were incubated at 37C, 5% CO2 for 72h. Cultures were then fixed and stained by addition of 50 uL of a solution containing 8% formaldehyde and 4 uM DRAQ5 DNA dye (BioStatus, UK) per well. […] Five images were collected per well for reliable statistical analysis. Automated image analysis was performed with a script developed on Acapella High Content Imaging and Analysis Software (PerkinElmer). Output: number of amastigotes per cell as infection level measurement.; format: functional, organism-based, Rattus norvegicus; settings: H9c2, 4 h
Trypanosoma cruzi [4] = assay: as §1, with “H2C9” for “Trypanosoma cruzi”, “H9c2 Host Cardiomyocytes.” for “Infected Cells.”, “Number” for “percentage”, “H9c2 Host Cardiomyocytes nuclei to determine drug-related cytotoxicity.” for “infected cells per well as a second infection marker.”; format: functional, organism-based, Rattus norvegicus; settings: H9c2, 4 h
Leishmania donovani [5] = assay: GSK_TCAKS: pIC50 Leishmania donovani viability assay using fluorescence intensity. Assay plates (1536-well) were prepared by adding 30nL per well of compound. For single shot assay, the final compound concentration was 5uM. […] Briefly, eGFP LdBOB axenic amastigotes were harvested, fixed and counted in a CASY cell counter (Roche-Applied Science). A final concentration of 1.5 * 10^5 cells per well were prepared in amastigote media containing 500 U/mL penicillin/streptomycin (Invitrogen) and 6uL was dispensed to each experimental well using a Multidrop Combi dispenser (Thermo Scientific). 6uL of assay media was dispensed to control columns used as reference for 100% compound response. Following incubation for 72 h at 37C, 5% CO2, 2 uL of resazurin was added to each well at a final concentration of 0.5 mM in phosphate buffered saline (PBS) with IGEPAL (Sigma-Aldrich), 0.05% (v/v).; format: functional, organism-based
Leishmania donovani [6] = assay: (§2) GSK_TCAKS: pIC50 Leishmania donovani Imaging: Infected Macrophages. Assay plates (384-well) were prepared by adding 250nL of compound to each well. For single shot assay, the final compound concentration was 5 uM. […] Automated image analysis was performed with a script developed on Acapella High Content Imaging and Analysis Software (PerkinElmer). Output: Percent of infected macrophage cells were reported for each well.; format: functional, organism-based, Homo sapiens; settings: THP-1
Leishmania donovani [7] = assay: as §2, with “Amastigotes/Macrophages.” for “Infected Macrophages.”, “Average number” for “Percent”, “amastigotes per” for “infected”, “cell” for “cells”; format: functional, organism-based, Homo sapiens; settings: THP-1
Leishmania donovani [8] = assay: as §2, with “THP-1 Host” for “Infected”, “THP-1 cell count” for “Percent of infected macrophage cells”; format: functional, organism-based, Homo sapiens
[9] = test system: Trypanosoma brucei brucei; assay: GSK_TCAKS: pIC50 Trypanosoma brucei viability assay using fluorescence intensity. Assay plates (1536-well) were prepared by dispensing 25nL of compound solution per well using an Echo acoustic dispenser (Labcyte).; format: functional, organism-based; settings: Lister 427, 2 h
[10] = test system: Trypanosoma brucei brucei; assay: GSK_TCAKS: pIC50 Trypanosoma brucei viability assay using luminiscence. Assay plates (1536-well) were prepared. T. brucei cultures were harvested and counted in a CASY cell counter. A parasite suspension was prepared at a final concentration of 5 * 10^4 cells/mL in complete HMI9 medium and 6uL was dispensed to all wells containing compounds using a Multidrop Combi dispenser. 6uL of HMI9 media with 0.4% DMSO were dispensed to control columns. Plates were incubated for 24 h at 37C, 5% CO2 then tempered for 10 min at room temperature. ATP content was quantified by adding 4 uL of CellTiter-Glo Reagent (Promega) according to the manufacturer's instructions. Luminescence was measured using a ViewLux.; format: functional, organism-based; settings: Lister 427, CASY
[11] = GSK_TCAKS: pIC50 HepG2 human cell line viability assay using luminiscence. […] Seeding density was checked to ensure that new mono-layers were not more than 50% confluent at the time of harvesting. Cell suspension was added to 500 mL of the same medium at a final density of 1.2 * 10^5 cells/mL. This cell suspension was dispensed (25 uL, 3000 cells per well) into 384-well clear-bottom plates using a Multidrop Combi dispenser. Prior to addition of the cell suspension, the screening compounds (250 nL) were pre-dispensed into the plates with an Echo liquid handler. Plates were incubated for 48 h at 37C, 5% CO2. After incubation, plates equilibrated at room temperature for 30 min before proceeding to develop the luminescent signal. The signal developer, CellTiter-Glo Reagent, was allowed to equilibrate at room temperature for 30 min and added to the plates (25uL per well) using a Multidrop Combi dispenser. Plates were left for 10 min at room temperature for stabilization and then read using a ViewLux.; format: toxicity, cell-based
NIH3T3 = assay: GSK_TCAKS: pIC50 NIH 3T3 cell line viability assay using luminiscence. Tissue culture surface treated assay plates (1536-well) were used. […] The 100% cells survival control was determined exposing the host-cells to a 0.5% DMSO concentration, whereas the 100% toxicity control was achieved by seeding the cells in presence of Amphotericin B at 50uM. Plates were incubated for four days at 37C, 5% CO2. The assay readout was developed by addition of 5uL of CellTiter-Glo Reagent following the manufacturer's instructions. Luminiscence was measured using a ViewLux.; format: functional, cell-based; settings: Mus musculus, NIH3T3, 96 h
[12] = target: Sterol 14-alpha demethylase (Trypanosoma cruzi (strain CL Brener), UniProt Q7Z1V1); assay: GSK_TCAKS: pIC50 CYP51 from Trypanosoma cruzi.; format: functional
Sequence of Sterol 14-alpha demethylase (Q7Z1V1 whole entry): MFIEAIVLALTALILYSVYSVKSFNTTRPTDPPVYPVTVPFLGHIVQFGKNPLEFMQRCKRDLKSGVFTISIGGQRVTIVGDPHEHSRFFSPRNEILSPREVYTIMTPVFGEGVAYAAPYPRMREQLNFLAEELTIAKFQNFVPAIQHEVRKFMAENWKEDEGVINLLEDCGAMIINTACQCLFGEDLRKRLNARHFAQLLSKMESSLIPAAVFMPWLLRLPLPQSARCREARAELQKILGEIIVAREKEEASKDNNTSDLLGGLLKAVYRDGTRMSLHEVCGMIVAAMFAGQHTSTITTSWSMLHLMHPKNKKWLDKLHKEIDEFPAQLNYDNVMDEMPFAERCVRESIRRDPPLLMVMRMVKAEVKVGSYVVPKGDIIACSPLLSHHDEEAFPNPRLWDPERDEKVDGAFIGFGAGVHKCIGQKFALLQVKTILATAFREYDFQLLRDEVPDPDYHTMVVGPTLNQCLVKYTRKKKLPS

Compound | IC50 (Trypanosoma cruzi [1]) [µM] | IC50 (Trypanosoma cruzi [2]) [µM] | IC50 (Trypanosoma cruzi [3]) [µM] | IC50 (Trypanosoma cruzi [4]) [µM] | IC50 (Leishmania donovani [5]) [µM] | IC50 (Leishmania donovani [6]) [µM] | IC50 (Leishmania donovani [7]) [µM] | IC50 (Leishmania donovani [8]) [µM] | IC50 [9] [µM] | IC50 [10] [µM] | IC50 at 48 h [11] [µM] | IC50 (NIH3T3) [µM] | IC50 [12] [µM]
Cc1ccccc1OCC(=O)N1CCCN(c2cccnn2)CC1 | 0.316 | 0.631 | 0.501 | > 50.1 | 12.6 | > 50.1 | > 50.1 | > 50.1 | > 39.8 | > 39.8 | > 100 | 50.1 | 0.0794
Cc1ccc(S(=O)(=O)Nc2ccc(CN3CCN(C(=O)c4cccc(C#N)c4)CC3)cc2)cc1 | 0.501 | 0.501 | 0.398 | > 50.1 | 10 | > 50.1 | 25.1 | > 50.1 | 0.158 | 0.316 | > 100 | > 50.1 | > 100
Cc1nccn1C1CCCN(C(=O)c2cc3c(F)cccc3s2)C1 (centres undefined) | 0.631 | 1 | 0.794 | > 50.1 | 5.01 | > 50.1 | > 50.1 | > 50.1 | > 39.8 | > 39.8 | > 100 | 20 | 50.1
Cc1cc2cncn2c(C2CCCCN2C(=O)c2cccs2)n1 (centres undefined) | 0.0251 | 0.0631 | 0.0631 | > 50.1 | 0.398 | > 50.1 | > 50.1 | > 50.1 | > 39.8 | > 39.8 | > 100 | > 50.1 | 0.1
CC(Cn1ccnc1)NC(=O)C1CC1c1cccc(Cl)c1Cl (centres undefined) | 0.141 | 0.251 | 0.2 | > 50.1 | 15.8 | > 50.1 | 10 | > 50.1 | > 39.8 | > 39.8 | > 100 | > 50.1 | 0.126
COc1ccc2ncc(F)c(NC(=O)[C@]3(O)CC[C@@H](NCc4ccc5c(c4)OCCO5)CC3)c2n1 | 0.158 | 0.126 | 0.158 | 31.6 | 39.8 | 31.6 | 15.8 | 20 | 0.794 | 1.58 | 50.1 | 7.94 | 63.1
O=C(C1CCCCC1)N1CCN(c2nnc(-c3ccccc3)c3ccccc23)CC1 | 1 | 0.631 | 0.398 | > 50.1 | > 50.1 | > 50.1 | 20 | 50.1 | 10 | > 39.8 | > 100 | > 50.1 | > 100
O=C(Cn1cnc2cc([N+](=O)[O-])ccc2c1=O)NCCc1ccc(Cl)cc1Cl | 0.631 | 0.398 | 0.2 | > 50.1 | > 50.1 | > 50.1 | > 50.1 | > 50.1 | 12.6 | > 39.8 | > 100 | > 50.1 | > 100
